From patent US12246008B2, “4-amino or 4-alkoxy-substituted aryl sulfonamide compounds with selective activity in voltage-gated sodium channels” (Merck Sharp & Dohme LLC, priority 2018, dated 2025)
Read-outs that look alike come from different tables or passages of the source.

How the values were obtained:
Test in all cases: Qube automated patch-clamp assay, inhibition of sodium current
Assay type in all cases: cell-based
[1] = target: T1, human Nav1.7 channels stably expressed in HEK 293 cells (Homo sapiens, UniProt Q15858); settings: max concentration tested 33750 nM, read-out: NaV1.7 (nM)
T1 construct: expressed in transfected cells; host or cells: HEK 293
T1 sequence (Q15858 whole entry): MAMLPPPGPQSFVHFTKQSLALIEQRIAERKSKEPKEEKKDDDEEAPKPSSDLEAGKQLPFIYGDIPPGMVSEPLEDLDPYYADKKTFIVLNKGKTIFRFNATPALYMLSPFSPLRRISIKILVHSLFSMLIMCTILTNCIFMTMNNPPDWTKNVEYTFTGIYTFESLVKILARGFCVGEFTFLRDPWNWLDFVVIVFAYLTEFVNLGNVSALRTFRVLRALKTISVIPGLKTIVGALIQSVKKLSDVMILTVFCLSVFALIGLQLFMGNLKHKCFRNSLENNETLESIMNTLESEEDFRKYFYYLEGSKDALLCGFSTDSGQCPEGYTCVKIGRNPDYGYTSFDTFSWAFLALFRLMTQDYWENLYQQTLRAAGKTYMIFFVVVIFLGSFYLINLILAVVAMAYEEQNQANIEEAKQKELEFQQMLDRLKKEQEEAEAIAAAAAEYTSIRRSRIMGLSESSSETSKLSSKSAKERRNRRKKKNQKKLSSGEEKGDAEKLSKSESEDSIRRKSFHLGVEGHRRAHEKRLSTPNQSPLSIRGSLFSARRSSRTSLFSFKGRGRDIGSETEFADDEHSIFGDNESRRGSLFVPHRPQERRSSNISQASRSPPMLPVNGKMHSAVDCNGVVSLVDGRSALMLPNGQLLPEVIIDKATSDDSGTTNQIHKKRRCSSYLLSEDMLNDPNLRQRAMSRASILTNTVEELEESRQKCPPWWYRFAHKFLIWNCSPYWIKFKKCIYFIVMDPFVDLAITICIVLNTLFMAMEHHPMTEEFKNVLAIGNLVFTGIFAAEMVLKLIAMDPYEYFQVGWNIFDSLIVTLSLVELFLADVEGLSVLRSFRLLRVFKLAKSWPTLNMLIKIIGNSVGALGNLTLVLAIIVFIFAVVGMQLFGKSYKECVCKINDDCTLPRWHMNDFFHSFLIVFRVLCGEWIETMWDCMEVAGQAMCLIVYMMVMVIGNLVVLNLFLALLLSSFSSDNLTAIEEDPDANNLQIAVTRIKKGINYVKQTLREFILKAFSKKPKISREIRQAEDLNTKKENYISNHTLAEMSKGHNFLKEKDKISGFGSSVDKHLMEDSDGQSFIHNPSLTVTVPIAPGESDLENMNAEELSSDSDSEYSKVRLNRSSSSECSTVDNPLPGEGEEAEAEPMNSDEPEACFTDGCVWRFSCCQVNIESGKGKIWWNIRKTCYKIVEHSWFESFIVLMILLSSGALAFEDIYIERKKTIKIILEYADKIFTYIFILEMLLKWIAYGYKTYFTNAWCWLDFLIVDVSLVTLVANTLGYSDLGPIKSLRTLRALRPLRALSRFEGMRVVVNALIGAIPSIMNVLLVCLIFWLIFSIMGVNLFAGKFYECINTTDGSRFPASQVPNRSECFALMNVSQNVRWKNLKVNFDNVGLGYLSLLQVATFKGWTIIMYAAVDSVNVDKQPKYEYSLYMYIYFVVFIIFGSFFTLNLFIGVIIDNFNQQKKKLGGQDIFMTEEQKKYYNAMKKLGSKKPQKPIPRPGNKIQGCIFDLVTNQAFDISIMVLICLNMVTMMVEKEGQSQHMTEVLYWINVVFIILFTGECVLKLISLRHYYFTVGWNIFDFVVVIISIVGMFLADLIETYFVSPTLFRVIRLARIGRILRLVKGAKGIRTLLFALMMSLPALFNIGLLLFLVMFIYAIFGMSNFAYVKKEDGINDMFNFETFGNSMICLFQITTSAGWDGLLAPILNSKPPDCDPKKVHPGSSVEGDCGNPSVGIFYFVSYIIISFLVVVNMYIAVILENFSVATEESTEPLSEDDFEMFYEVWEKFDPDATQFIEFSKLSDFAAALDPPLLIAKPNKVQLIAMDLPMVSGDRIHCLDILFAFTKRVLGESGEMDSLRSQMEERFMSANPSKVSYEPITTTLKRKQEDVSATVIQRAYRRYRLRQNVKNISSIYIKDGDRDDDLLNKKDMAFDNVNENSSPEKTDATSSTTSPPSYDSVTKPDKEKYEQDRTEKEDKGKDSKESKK
Procedure: (§1) Qube™ Experimental Procedure:
(§2) Compounds were tested on human Nav1.7 and Nav1.6 channels stably expressed in HEK 293 cells. […] Cells were sealed on a planar substrate using the multihole technology. Cells expressing human Nav1.7 channels were held at −75 mV or −80 mV. Cells expressing human Nav1.6 channels were held at −65 mV. A train of 6 consecutive test pulses to −10 mV, preceded by 8 s prepulses to −115 mV, was applied at a frequency of 0.1 Hz before and after compound addition. Cells in each Qchip well were incubated in compound for 5 minutes before measuring inhibition. Peak currents were measured in control conditions and after compound addition. The following recording solutions were used (mM). External Nav1.6: 150 NaCl, 2 CaCl2), 5 KCl, 1 Mg Cl2, 10 HEPES, 12 Dextrose; external Nav1.7: 40 NaCl, 120 NMDG, 1 KCl, 0.5 MgCl2, 5 HEPES, 2.7 CaCl2); internal: 120 CsF, 30 CsCl, 10 EGTA, 5 HEPES, 5 NaF, 2 MgCl2. Compounds were prepared as 10 mM stock solutions in DMSO. 10 point compound titrations were generated using the Echo acoustic liquid handling instrument and glass coated 384 well plates. The final DMSO concentration in the assay was 0.3%. For all electrophysiology experiments, offline analysis was used to determine percent inhibition as a function of drug concentration. IC50 values were determined by fitting to the Hill equation.
(§3) The various compounds in EXAMPLES 1 through 43 and TABLE 2 exemplified above were assayed for activity and selectivity using the foregoing Qube® technique. The results are reported in TABLE 3 in a format expressing the identification of the compound with reference EXAMPLE followed by the observed potency in nM for NaV1.7, NaV1.6 and NaV1.5. NA signifies not applicable and the max concentration tested is 33750 nM.

[2] = target: T2, human Nav1.6 channels stably expressed in HEK 293 cells (Homo sapiens, UniProt Q9UQD0); settings: holding potential −65 mV; max concentration tested 33750 nM
T2 construct: expressed in transfected cells; host or cells: HEK 293
T2 sequence (Q9UQD0 whole entry): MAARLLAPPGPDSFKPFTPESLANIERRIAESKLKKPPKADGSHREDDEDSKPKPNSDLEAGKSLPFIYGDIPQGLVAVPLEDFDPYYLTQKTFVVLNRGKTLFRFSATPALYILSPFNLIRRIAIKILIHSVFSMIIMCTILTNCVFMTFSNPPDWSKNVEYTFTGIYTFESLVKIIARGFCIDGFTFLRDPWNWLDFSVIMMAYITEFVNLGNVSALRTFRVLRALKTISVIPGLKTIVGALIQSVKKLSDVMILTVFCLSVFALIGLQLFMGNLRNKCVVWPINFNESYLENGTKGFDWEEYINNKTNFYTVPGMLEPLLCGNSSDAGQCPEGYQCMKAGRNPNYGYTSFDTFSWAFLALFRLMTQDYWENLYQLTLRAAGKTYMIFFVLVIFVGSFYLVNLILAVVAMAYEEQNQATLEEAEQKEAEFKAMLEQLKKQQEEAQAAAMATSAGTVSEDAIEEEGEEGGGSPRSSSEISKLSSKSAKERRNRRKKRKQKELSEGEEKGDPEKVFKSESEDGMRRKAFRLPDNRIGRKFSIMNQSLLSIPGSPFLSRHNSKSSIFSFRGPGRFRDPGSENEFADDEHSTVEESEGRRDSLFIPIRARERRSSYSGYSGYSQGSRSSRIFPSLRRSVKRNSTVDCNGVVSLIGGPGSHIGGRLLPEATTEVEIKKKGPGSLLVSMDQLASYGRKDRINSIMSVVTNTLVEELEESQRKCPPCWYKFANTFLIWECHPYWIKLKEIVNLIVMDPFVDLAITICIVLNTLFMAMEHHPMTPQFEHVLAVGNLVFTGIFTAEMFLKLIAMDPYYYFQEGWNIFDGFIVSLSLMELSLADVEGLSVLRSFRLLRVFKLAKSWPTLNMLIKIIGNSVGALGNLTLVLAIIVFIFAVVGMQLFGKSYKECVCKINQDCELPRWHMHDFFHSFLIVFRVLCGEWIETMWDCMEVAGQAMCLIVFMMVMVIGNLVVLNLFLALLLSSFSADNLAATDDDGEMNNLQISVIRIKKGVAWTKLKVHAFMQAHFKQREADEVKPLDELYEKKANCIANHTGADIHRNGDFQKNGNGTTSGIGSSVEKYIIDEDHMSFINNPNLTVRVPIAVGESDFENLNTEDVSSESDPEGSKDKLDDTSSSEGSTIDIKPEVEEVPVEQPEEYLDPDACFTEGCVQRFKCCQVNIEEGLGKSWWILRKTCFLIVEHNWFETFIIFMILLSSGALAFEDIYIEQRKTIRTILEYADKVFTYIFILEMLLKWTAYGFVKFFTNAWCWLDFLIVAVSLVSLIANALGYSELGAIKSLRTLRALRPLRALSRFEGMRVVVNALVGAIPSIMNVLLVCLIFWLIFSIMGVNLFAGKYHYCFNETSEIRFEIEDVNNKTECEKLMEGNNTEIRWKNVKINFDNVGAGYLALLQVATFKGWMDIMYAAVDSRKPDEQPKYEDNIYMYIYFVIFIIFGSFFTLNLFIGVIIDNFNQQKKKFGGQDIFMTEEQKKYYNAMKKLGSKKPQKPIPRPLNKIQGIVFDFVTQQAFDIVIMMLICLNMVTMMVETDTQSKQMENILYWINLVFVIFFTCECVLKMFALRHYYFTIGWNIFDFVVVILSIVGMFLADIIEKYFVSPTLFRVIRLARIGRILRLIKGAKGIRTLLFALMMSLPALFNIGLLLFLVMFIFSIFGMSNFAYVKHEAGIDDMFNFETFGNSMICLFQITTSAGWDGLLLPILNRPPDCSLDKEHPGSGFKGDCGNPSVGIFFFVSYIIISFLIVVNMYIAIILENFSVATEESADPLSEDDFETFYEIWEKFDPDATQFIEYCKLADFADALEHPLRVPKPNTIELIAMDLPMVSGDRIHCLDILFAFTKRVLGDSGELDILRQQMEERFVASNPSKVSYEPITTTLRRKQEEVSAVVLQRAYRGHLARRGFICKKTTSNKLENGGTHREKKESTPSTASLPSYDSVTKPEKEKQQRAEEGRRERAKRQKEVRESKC
Procedure: as §1, §2, §3

NaV1.5 = NaV1.5 (Homo sapiens, UniProt Q14524); settings: holding potential −80 mV; max concentration tested 33750 nM
Procedure: as §2, §3

[3] = holding potential −75 mV, −75 mV
[4] = holding potential −80 mV, −80 mV

`C[C@@H](N)[C@H](CNc1cc(F)c(S(=O)(=O)Nc2ncns2)cc1Cl)CC(N)C(F)(F)F` (single isomer, unassigned) [Example 1] showed an IC50 [1, 3] of 203 nM and an IC50 [2] of 20400 nM.
Work on `C[C@@H](N)[C@H](CNc1cc(F)c(S(=O)(=O)Nc2ncns2)cc1Cl)CC(N)C(F)(F)F` (single isomer, unassigned) [Example 2] yielded an IC50 (NaV1.5) of over 33800 nM, an IC50 [1, 3] of 84 nM and an IC50 [2] of 13800 nM.
`C[C@@H](N)C(CNc1cc(F)c(S(=O)(=O)Nc2ncns2)cc1Cl)CC(C)(C)CN` (single isomer, unassigned) [Example 3] gave an IC50 (NaV1.5) of over 33800 nM, an IC50 [1, 3] of 41 nM and an IC50 [2] of over 33800 nM.
`C[C@@H](N)C(COc1ncc(S(=O)(=O)Nc2ncc(F)s2)cc1Cl)CC1(CCN)CCC1` (single isomer, unassigned) [Example 6] gave an IC50 [1, 3] of 93 nM and an IC50 [2] of over 33800 nM.
In the case of `C[C@@H](N)C(CNc1ncc(S(=O)(=O)Nc2ncc(F)s2)cc1Cl)CC1(CCN)CCC1` (single isomer, unassigned) [Example 8], the IC50 [1, 3] is reported as 18 nM and the IC50 [2] is reported as over 33800 nM.
`C[C@@H](N)C(CNc1cc(F)c(S(=O)(=O)Nc2ncns2)cc1F)CC1CC(C)(C)CN1` (single isomer, unassigned) [Example 14] showed an IC50 [1, 4] of over 33800 nM.
`C[C@@H](N)C(CNc1cc(F)c(S(=O)(=O)Nc2ncns2)cc1F)CC1CC(C)(C)CN1` (single isomer, unassigned) [Example 17] showed an IC50 (NaV1.5) of over 33800 nM, an IC50 [1, 4] of 113 nM and an IC50 [2] of over 33800 nM.
`C[C@@H](N)[C@H](CNc1ccc(S(=O)(=O)Nc2ncns2)c(F)c1)CC(CCN)C1CC1` (single isomer, unassigned) [Example 19] gave an IC50 (NaV1.5) of over 33800 nM, an IC50 [1, 3] of 31 nM and an IC50 [2] of over 33800 nM.
In the case of `C[C@@H](N)[C@H](CNc1ccc(S(=O)(=O)Nc2ncns2)c(F)c1)CC(CCN)C1CC1` (single isomer, unassigned) [Example 20], the IC50 [1, 4] is reported as 1390 nM.
`CC[C@@H](N)C(CNc1cc(F)c(S(=O)(=O)Nc2ncns2)c(F)c1F)CC1(CCN)CCC1` (single isomer, unassigned) [Example 21] was tested, and the IC50 [1, 4] was 916 nM.
With `CC[C@@H](N)C(CNc1cc(F)c(S(=O)(=O)Nc2ncns2)c(F)c1F)CC1(CCN)CCC1` (single isomer, unassigned) [Example 22] the IC50 (NaV1.5) was over 33800 nM, the IC50 [1, 4] was 26 nM and the IC50 [2] was 12100 nM.
`C[C@@H](N)C(CNc1cc(F)c(S(=O)(=O)Nc2ncns2)cc1F)CC1CCCC12CNC2` (single isomer, unassigned) [Example 24] was tested, and the IC50 [1, 4] was over 33800 nM.
With `C[C@@H](N)C(CNc1cc(F)c(S(=O)(=O)Nc2ncns2)cc1F)CC1CCCC12CNC2` (single isomer, unassigned) [Example 25] the IC50 (NaV1.5) was over 33800 nM, the IC50 [1, 4] was 83 nM and the IC50 [2] was over 33800 nM.
`C[C@@H](N)[C@H](CNc1cc(F)c(S(=O)(=O)Nc2ncns2)cc1Cl)C[C@@H]1C[C@@H]1CN` (single isomer, unassigned) [Example 33] was tested, and the IC50 [1, 3] was 156 nM and the IC50 [2] was over 33800 nM.
`C[C@@H](N)C(CNc1cc(F)c(S(=O)(=O)Nc2ncns2)cc1F)C(N)C1CCC1` (single isomer, unassigned) [Example 34] was tested, and the IC50 (NaV1.5) was over 33800 nM, the IC50 [1, 3] was 77 nM and the IC50 [2] was over 33800 nM.
In the case of `CC(C)NCC(CNc1cc(F)c(S(=O)(=O)Nc2ncns2)cc1Cl)[C@@H](C)N` (single isomer, unassigned) [Example 36], the IC50 (NaV1.5) is reported as over 33800 nM, the IC50 [1, 3] is reported as 82 nM and the IC50 [2] is reported as over 33800 nM.
In the case of `CC(C)NCC(CNc1cc(F)c(S(=O)(=O)Nc2ncns2)cc1Cl)[C@@H](C)N` (single isomer, unassigned) [Example 37], the IC50 [1, 3] is reported as 6760 nM and the IC50 [2] is reported as over 33800 nM.
`C[C@@H](N)[C@@H](CC(C)(C)CCN)C1CCc2cc(S(=O)(=O)Nc3ncns3)c(F)cc2O1` (single isomer, unassigned) [Example 41] showed an IC50 [1, 4] of 13700 nM.
`C[C@@H](N)C(CNc1cc(F)c(S(=O)(=O)Nc2ncns2)cc1F)CC1CCCC1CN` (single isomer, unassigned) [Example 47] showed an IC50 [1, 4] of 3610 nM and an IC50 [2] of over 33800 nM.
In the case of `C[C@@H](N)C(CNc1cc(F)c(S(=O)(=O)Nc2ncns2)cc1F)CC1(C)CCC1CN` (single isomer, unassigned) [Example 52], the IC50 [1, 4] is reported as 12300 nM and the IC50 [2] is reported as over 33800 nM.
`C[C@@H](N)C(CNc1cc(F)c(S(=O)(=O)Nc2ncns2)cc1F)CC1(C)CCC1CN` (single isomer, unassigned) [Example 55] showed an IC50 [1, 4] of 1060 nM and an IC50 [2] of over 33800 nM.
`C[C@@H](N)C(CNc1cc(F)c(S(=O)(=O)Nc2ncns2)cc1Br)CC1(CCN)CC(F)(F)C1` (single isomer, unassigned) [Example 56] gave an IC50 [1, 4] of over 33800 nM.
In the case of `C[C@@H](N)C(CNc1cc(F)c(S(=O)(=O)Nc2ncns2)cc1F)CC1CCCCC1CCN` (single isomer, unassigned) [Example 64], the IC50 [1, 4] is reported as 14600 nM and the IC50 [2] is reported as over 33800 nM.
`C[C@@H](N)C(CNc1cc(F)c(S(=O)(=O)Nc2ncns2)cc1F)CC1CCCCC1CCN` (single isomer, unassigned) [Example 66] was tested, and the IC50 [1, 4] was 12600 nM and the IC50 [2] was over 33800 nM.
`C[C@@H](N)C(CNc1cc(F)c(S(=O)(=O)Nc2ncns2)cc1F)CC1CCCCC1CCN` (single isomer, unassigned) [Example 67] showed an IC50 [1, 4] of over 33800 nM and an IC50 [2] of over 33800 nM.
In the case of `C[C@@H](N)C(CNc1cc(F)c(S(=O)(=O)Nc2ncns2)cc1F)CC1CNCC1(C)C` (single isomer, unassigned) [Example 76], the IC50 [1, 4] is reported as 328 nM and the IC50 [2] is reported as over 33800 nM.
In the case of `COC(CN)C[C@@H](CNc1cc(F)c(S(=O)(=O)Nc2ncns2)cc1Br)[C@@H](C)N` (single isomer, unassigned) [Example 81], the IC50 [1, 4] is reported as 87 nM and the IC50 [2] is reported as over 33800 nM.
Compound `COC(CN)C[C@@H](CNc1cc(F)c(S(=O)(=O)Nc2ncns2)cc1Br)[C@@H](C)N` (single isomer, unassigned) [Example 82] has an IC50 [1, 4] of 1760 nM.
Compound `C[C@@H](N)C(CNc1ccc(S(=O)(=O)Nc2ncns2)cc1F)CC1(N)CCC1` (single isomer, unassigned) [Example 89] has an IC50 [1, 3] of 274 nM and an IC50 [2] of over 33800 nM.
For `C[C@@H](N)C(COc1cc(F)c(S(=O)(=O)Nc2ncns2)cc1F)CC1(CCN)CCC1` (single isomer, unassigned) [Example 95], the IC50 [1, 4] was 4130 nM and the IC50 [2] was over 33800 nM.
In the case of `C[C@@H](N)C(CNc1cc(F)c(S(=O)(=O)Nc2ncns2)cc1F)C[C@@]1(C)CCC[C@@H]1CN` (single isomer, unassigned) [Example 96], the IC50 [1, 3] is reported as 618 nM and the IC50 [2] is reported as over 33800 nM.
Work on `C[C@@H](N)C(CNc1cc(F)c(S(=O)(=O)Nc2ncns2)cc1F)C[C@]1(C)CCC[C@H]1CN` (single isomer, unassigned) [Example 98] yielded an IC50 [1, 4] of 2360 nM and an IC50 [2] of over 33800 nM.
`C[C@@H](N)C(CNc1cc(F)c(S(=O)(=O)Nc2ncns2)cc1F)C[C@]1(C)CCC[C@H]1CN` (single isomer, unassigned) [Example 99] was tested, and the IC50 [1, 4] was 450 nM and the IC50 [2] was over 33800 nM.
`C[C@@H](N)C(CNc1cc(F)c(S(=O)(=O)Nc2ncns2)cc1Cl)CC1COCCN1` (single isomer, unassigned) [Example 101] was tested, and the IC50 [1, 3] was 84 nM and the IC50 [2] was over 33800 nM.
For `C[C@@H](N)C(CNc1cc(F)c(S(=O)(=O)Nc2ncns2)cc1Cl)CC1COCCN1` (single isomer, unassigned) [Example 104], the IC50 [1, 3] was 305 nM and the IC50 [2] was over 33800 nM.
`CC(C)C(N)CC(CNc1cc(F)c(S(=O)(=O)Nc2ncns2)cc1Br)[C@@H](C)N` (single isomer, unassigned) [Example 108] was tested, and the IC50 [1, 3] was 17 nM and the IC50 [2] was over 33800 nM.
`C[C@@H](N)[C@H](CNc1ncc(S(=O)(=O)Nc2ncns2)cc1C(F)(F)F)CC(C)(C)CCN` [Example 13, 6-(((S)-6-amino-2-((R)-1-aminoethyl)-4,4-dimethylhexyl)amino)-N-(1,2,4-thiadiazol-5-yl)-5-(trifluoromethyl)pyridine-3-sulfonamide] was tested, and the IC50 [1, 3] was 230 nM and the IC50 [2] was over 33800 nM.
With `C[C@@H](N)[C@H](CNc1ncc(S(=O)(=O)Nc2ncns2)cc1C#N)CC(C)(C)CCN` [Example 31, 6-(((S)-6-amino-2-((R)-1-aminoethyl)-4,4-dimethylhexyl)amino)-5-cyano-N-(1,2,4-thiadiazol-5-yl)pyridine-3-sulfonamide] the IC50 [1, 3] was 205 nM and the IC50 [2] was over 33800 nM.
`C[C@@H](N)[C@H](CNc1cc(F)c(S(=O)(=O)Nc2cccc(F)n2)cc1Cl)CC1(N)CCC1` [Example 105] showed an IC50 [1, 3] of 14 nM and an IC50 [2] of 8340 nM.
For `Cc1csc(NS(=O)(=O)c2cc(Cl)c(NC[C@H](CC(C)(C)N)[C@@H](C)N)cc2F)n1` [Example 106], the IC50 [1, 3] was 133 nM and the IC50 [2] was over 33800 nM.
`Cc1cc(S(=O)(=O)Nc2ncc(F)s2)c(F)cc1NC[C@H](CC(C)(C)N)[C@@H](C)N` [Example 107] showed an IC50 [1, 3] of 17 nM and an IC50 [2] of 3590 nM.
